We go through 16 compounds from patent US12227501B2, “3-amino-2-[2-(acylamino)pyridin-4-yl]-1,5,6,7-tetrahydro-4h-pyrrolo[3,2-c]pyridin-4-one as CSNK1 inhibitors” (Bayer Aktiengesellschaft, priority 2019, dated 2025).

pIC50: −log10 of the molar value. Like-named read-outs stand apart in the source and are kept apart here.

Holding throughout (assay type): biochemical
The target of experiment [1] is T1, human CSNK1A1 (Homo sapiens (Human), UniProt P48729). Put plainly: CSNK1A1 High ATP Assay (ADP-Glo, 1 mM ATP). To be noted: read-out: CSNK1A1 high ATP assay IC50 [mol/l] (median). Put shortly: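 Kinase activity taken as ADP generated, quantified by ADP-Glo luminescence after 1 h ATP depletion and 1 h detection at 22 °C. Enzyme is GST–full-length human CSNK1A1 (insect cell-expressed), pre-bound to compound for 15 min, with phosphopeptide substrate and 1 mM ATP.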
T1 sequence (P48729 whole entry): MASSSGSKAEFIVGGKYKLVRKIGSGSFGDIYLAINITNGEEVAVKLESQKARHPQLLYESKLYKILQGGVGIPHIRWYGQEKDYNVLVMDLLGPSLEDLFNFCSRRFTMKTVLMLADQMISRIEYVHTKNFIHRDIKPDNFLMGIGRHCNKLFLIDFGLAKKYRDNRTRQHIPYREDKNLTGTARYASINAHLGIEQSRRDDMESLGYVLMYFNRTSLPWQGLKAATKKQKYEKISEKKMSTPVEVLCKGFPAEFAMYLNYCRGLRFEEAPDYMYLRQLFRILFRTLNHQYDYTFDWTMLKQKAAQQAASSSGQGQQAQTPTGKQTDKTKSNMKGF
On the technique in general: In ADP-Glo the light output rises with the ADP produced.

In experiment [2] the target is wild-type Epidermal Growth Factor Receptor (EGFR) (Homo sapiens (Human), UniProt P00533). Put plainly: WT-EGFR Kinase Assay (TR-FRET, 2 mM ATP).
wild-type Epidermal Growth Factor Receptor (EGFR), sequence (P00533 669-1210): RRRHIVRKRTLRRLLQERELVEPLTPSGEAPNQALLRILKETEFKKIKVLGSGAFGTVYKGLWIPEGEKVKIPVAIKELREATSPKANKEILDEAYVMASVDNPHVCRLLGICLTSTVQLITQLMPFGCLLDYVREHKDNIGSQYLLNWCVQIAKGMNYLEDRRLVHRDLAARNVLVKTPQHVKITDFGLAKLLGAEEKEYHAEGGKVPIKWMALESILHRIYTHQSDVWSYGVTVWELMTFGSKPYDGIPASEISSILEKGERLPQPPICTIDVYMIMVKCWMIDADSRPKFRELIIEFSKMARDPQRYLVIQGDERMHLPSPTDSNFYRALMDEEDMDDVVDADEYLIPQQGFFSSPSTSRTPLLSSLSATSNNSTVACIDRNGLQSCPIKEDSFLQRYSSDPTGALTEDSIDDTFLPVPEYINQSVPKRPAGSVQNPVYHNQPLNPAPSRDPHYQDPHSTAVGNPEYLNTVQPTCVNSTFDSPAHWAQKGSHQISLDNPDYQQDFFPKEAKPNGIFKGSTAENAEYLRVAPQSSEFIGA
The next experiment deals with human CSNK1D (Homo sapiens (Human), UniProt P48730). Put plainly: CSNK1D Assay (ADP-Glo, 1 μM ATP). The following applies: read-out: CSNK1D IC50 [mol/l] (median). Put shortly: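 Activity is read as ADP produced, by ADP-Glo luminescence after 1 h steps at 22 °C. The reaction uses 1 μM ATP, a biotinylated peptide and insect-cell-expressed GST–CSNK1D (about 0.5 ng/μL) in pH 7.5 HEPES buffer, with 15 min compound–enzyme preincubation.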
human CSNK1D, sequence (P48730 whole entry): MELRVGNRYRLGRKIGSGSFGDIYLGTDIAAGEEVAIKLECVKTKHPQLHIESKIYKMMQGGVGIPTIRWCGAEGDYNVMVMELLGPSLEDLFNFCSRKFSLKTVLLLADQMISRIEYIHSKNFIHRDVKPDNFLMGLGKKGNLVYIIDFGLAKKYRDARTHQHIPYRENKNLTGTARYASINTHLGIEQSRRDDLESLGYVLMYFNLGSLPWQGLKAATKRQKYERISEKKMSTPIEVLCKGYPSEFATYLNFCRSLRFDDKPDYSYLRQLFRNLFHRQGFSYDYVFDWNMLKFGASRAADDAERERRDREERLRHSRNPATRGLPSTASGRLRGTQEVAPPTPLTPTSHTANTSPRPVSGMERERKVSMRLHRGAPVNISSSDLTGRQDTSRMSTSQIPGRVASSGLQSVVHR

The target in experiment [3] is T1, human CSNK1A1. Put plainly: CSNK1A1 Assay 2 (ADP-Glo, 1 μM ATP). To be noted: substrate biotin-Ahx-KRRRAL-pS-VASLPGL, read-out: CSNK1A1 Assay 2 IC50 [mol/l] (median). The method in brief:
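Full-length human CSNK1A1 as an N-terminal GST fusion (baculovirus/insect cells) with biotinylated peptide substrate biotin-Ahx-KRRRAL-pS-VASLPGL and 1 μM ATP, in HEPES pH 7.5 buffer. Compounds were pre-incubated with enzyme (~0.0375 ng/μL) for 15 min at 22 °C. Generated ADP was read by ADP-Glo luminescence as the activity measure.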

[4] abbreviates: EGFR Wildtyp- 2 mM ATP IC50 [mol/l] (median).
Where [5] appears, read: read-out: EGFR Wildtyp- 2 mM ATP IC50 [mol/l] (median).

On to `CN1CCc2[nH]c(-c3ccnc(NC(=O)C(CC(F)F)c4ccc(F)cc4)c3)c(Nc3ccccc3)c2C1=O` (single isomer, unassigned; (+)) [Example 63, (+)-N-[4-(3-anilino-5-methyl-4-oxo-4,5,6,7-tetrahydro-1H-pyrrolo[3,2-c]pyridin-2-yl)pyridin-2-yl]-4,4-difluoro-2-(4-fluorophenyl)butanamide], for which the pIC50 is 7.92 on human CSNK1A1 [1], 5.18 in experiment [2] (setting [4]), 8.40 on human CSNK1D and 8.67 at human CSNK1A1 [3].

As to `CC(C(=O)Nc1cc(-c2[nH]c3c(c2Nc2ccccc2)C(=O)N(C)CC3)ccn1)c1ccncc1` (single isomer, unassigned; (+)) [Example 73, (+)-N-[4-(3-anilino-5-methyl-4-oxo-4,5,6,7-tetrahydro-1H-pyrrolo[3,2-c]pyridin-2-yl)pyridin-2-yl]-2-(pyridin-4-yl)propanamide], the pIC50 on human CSNK1A1 [1] is 7.20; in experiment [2] (setting [4]) it was 5.17; on human CSNK1D, 8.35; at human CSNK1A1 [3], 8.62.

For `CCC(C(=O)Nc1cc(-c2[nH]c3c(c2Nc2ccccc2)C(=O)N(C)CC3)ccn1)c1ccc(F)cc1` (single isomer, unassigned; (+)) [Example 77, (+)-N-[4-(3-anilino-5-methyl-4-oxo-4,5,6,7-tetrahydro-1H-pyrrolo[3,2-c]pyridin-2-yl)pyridin-2-yl]-2-(4-fluorophenyl)butanamide], the pIC50 at human CSNK1A1 [1] is 7.06; in experiment [2] (setting [5]) it was below 4.70; at human CSNK1D, 8.35; at human CSNK1A1 [3], 8.67.

With `CC(C(=O)Nc1cc(-c2[nH]c3c(c2Nc2ccccc2)C(=O)N(C)CC3)ccn1)c1ccc(Cl)cc1` (single isomer, unassigned; (+)) [Example 81, (+)-N-[4-(3-anilino-5-methyl-4-oxo-4,5,6,7-tetrahydro-1H-pyrrolo[3,2-c]pyridin-2-yl)pyridin-2-yl]-2-(4-chlorophenyl)propanamide], the pIC50 on human CSNK1A1 [1] was 7.15; in experiment [2] (setting [5]), below 4.70; on human CSNK1D it was 8.07; at human CSNK1A1 [3], 8.36.

Turning to `CC1Cc2[nH]c(-c3ccnc(NC(=O)Cc4ccc(F)cc4)c3)c(Nc3ccccc3)c2C(=O)N1C` (single isomer, unassigned; (+)) [Example 89, (+)-N-{4-[3-anilino-5,6-dimethyl-4-oxo-4,5,6,7-tetrahydro-1H-pyrrolo[3,2-c]pyridin-2-yl]pyridin-2-yl}-2-(4-fluorophenyl)acetamide], the pIC50 on human CSNK1A1 [1] was 6.44; in experiment [2] (setting [4]), 5.22; at human CSNK1D it was 8.24; on human CSNK1A1 [3] it was 8.73.

Regarding `CC(C(=O)Nc1cc(-c2[nH]c3c(c2Nc2ccccc2)C(=O)N(C)C(C)C3)ccn1)c1ccc(F)cc1` (single isomer, unassigned; (+)) [Example 91, (+)-(2RS)—N-{4-[(6R*)-3-anilino-5,6-dimethyl-4-oxo-4,5,6,7-tetrahydro-1H-pyrrolo[3,2-c]pyridin-2-yl]pyridin-2-yl}-2-(4-fluorophenyl)propanamide], the pIC50 was 6.16 at human CSNK1A1 [1], below 4.70 in experiment [2] (setting [4]), 8.05 at human CSNK1D and 8.33 on human CSNK1A1 [3].

Regarding `CC(C(=O)Nc1cc(-c2[nH]c3c(c2Nc2ccccc2)C(=O)N(C)C(C)C3)ccn1)c1ccc(F)cc1` (single isomer, unassigned; (+)) [Example 92, (+)-N-{4-[3-anilino-5,6-dimethyl-4-oxo-4,5,6,7-tetrahydro-1H-pyrrolo[3,2-c]pyridin-2-yl]pyridin-2-yl}-2-(4-fluorophenyl)propanamide], the pIC50 at human CSNK1A1 [1] is 6.64; in experiment [2] (setting [4]), below 4.70; on human CSNK1D, 7.97; at human CSNK1A1 [3] it was 8.33.

For the compound `CC(C(=O)Nc1cc(-c2[nH]c3c(c2Nc2ccccc2)C(=O)N(C)C(C)C3)ccn1)c1ccc(F)cc1` (single isomer, unassigned; (+)) [Example 96, (+)-N-{4-[3-anilino-5,6-dimethyl-4-oxo-4,5,6,7-tetrahydro-1H-pyrrolo[3,2-c]pyridin-2-yl]pyridin-2-yl}-2-(4-fluorophenyl)propanamide], the pIC50 is 7.45 at human CSNK1A1 [1], 5.15 in experiment [2] (setting [4]), 8.36 on human CSNK1D and 8.27 at human CSNK1A1 [3].

Take `CC1Cc2[nH]c(-c3ccnc(NC(=O)Cc4ccncc4)c3)c(Nc3ccccc3)c2C(=O)N1C` (single isomer, unassigned; (+)) [Example 98, (+)-N-{4-[(6R*)-3-anilino-5,6-dimethyl-4-oxo-4,5,6,7-tetrahydro-1H-pyrrolo[3,2-c]pyridin-2-yl]pyridin-2-yl}-2-(pyridin-4-yl)acetamide]: the pIC50 at human CSNK1A1 [1] was 6.83; in experiment [2] (setting [4]) it was 5.36; on human CSNK1D, 8.21; at human CSNK1A1 [3], 8.38.

Take `CC1Cc2[nH]c(-c3ccnc(NC(=O)Cc4ccc(F)cc4)c3)c(Nc3ccccc3F)c2C(=O)N1C` (single isomer, unassigned; (+)) [Example 101, (+)-N-{4-[3-(2-fluoroanilino)-5,6-dimethyl-4-oxo-4,5,6,7-tetrahydro-1H-pyrrolo[3,2-c]pyridin-2-yl]pyridin-2-yl}-2-(4-fluorophenyl)acetamide]: the pIC50 is 6.59 at human CSNK1A1 [1], below 4.70 in experiment [2] (setting [4]), 8.13 at human CSNK1D and 8.43 at human CSNK1A1 [3].

Take `CC1Cc2[nH]c(-c3ccnc(NC(=O)C(CC(F)F)c4ccc(F)cc4)c3)c(Nc3ccccc3F)c2C(=O)N1C` (single isomer, unassigned; (+)) [Example 103, (+)-(2RS)-4,4-difluoro-N-{4-[(6R*)-3-(2-fluoroanilino)-5,6-dimethyl-4-oxo-4,5,6,7-tetrahydro-1H-pyrrolo[3,2-c]pyridin-2-yl]pyridin-2-yl}-2-(4-fluorophenyl)butanamide]: the pIC50 at human CSNK1A1 [1] is 6.57; in experiment [2] (setting [4]), below 4.70; at human CSNK1D it was 7.76; on human CSNK1A1 [3], 7.89.

Consider `CC1Cc2[nH]c(-c3ccnc(NC(=O)C(CC(F)F)c4ccc(F)cc4)c3)c(Nc3ccccc3F)c2C(=O)N1C` (single isomer, unassigned; (+)) [Example 105, (+)-4,4-difluoro-N-{4-[3-(2-fluoroanilino)-5,6-dimethyl-4-oxo-4,5,6,7-tetrahydro-1H-pyrrolo[3,2-c]pyridin-2-yl]pyridin-2-yl}-2-(4-fluorophenyl)butanamide], for which the pIC50 on human CSNK1A1 [1] is 7.02; in experiment [2] (setting [5]) it was below 4.70; on human CSNK1D, 8.26; at human CSNK1A1 [3], 8.39.

As to `CC1Cc2[nH]c(-c3ccnc(NC(=O)C(CC(F)F)c4ccc(F)cc4)c3)c(Nc3ccccc3F)c2C(=O)N1C` (single isomer, unassigned; (+)) [Example 108, (+)-4,4-difluoro-N-{4-[3-(2-fluoroanilino)-5,6-dimethyl-4-oxo-4,5,6,7-tetrahydro-1H-pyrrolo[3,2-c]pyridin-2-yl]pyridin-2-yl}-2-(4-fluorophenyl)butanamide], the pIC50 was 8.08 at human CSNK1A1 [1], below 4.70 in experiment [2] (setting [5]), 8.34 at human CSNK1D and 8.49 on human CSNK1A1 [3].

`CC1(C)Cc2[nH]c(-c3ccnc(NC(=O)C(CC(F)F)c4ccc(F)cc4)c3)c(Nc3cccc(F)c3Cl)c2C(=O)N1` (single isomer, unassigned; (+)) [Example 111, (+)-N-{4-[3-(2-chloro-3-fluoroanilino)-6,6-dimethyl-4-oxo-4,5,6,7-tetrahydro-1H-pyrrolo[3,2-c]pyridin-2-yl]pyridin-2-yl}-4,4-difluoro-2-(4-fluorophenyl)butanamide]: the pIC50 on human CSNK1A1 [1] was 6.87; in experiment [2] (setting [4]) it was 5.94; on human CSNK1D, 7.99; on human CSNK1A1 [3], 7.96.

`CC(C(=O)Nc1cc(-c2[nH]c3c(c2Nc2ccccc2F)C(=O)N(C)CC3)ccn1)c1ccc(F)cc1` (single isomer, unassigned; (-)) [Example 41, (−)-N-{4-[3-(2-fluoroanilino)-5-methyl-4-oxo-4,5,6,7-tetrahydro-1H-pyrrolo[3,2-c]pyridin-2-yl]pyridin-2-yl}-2-(4-fluorophenyl)propanamide]: the pIC50 at human CSNK1A1 [1] is 5.45; in experiment [2] (setting [4]) it was below 4.70; on human CSNK1D, 7.51; on human CSNK1A1 [3] it was 7.65.

In the case of `O=C1NC2(CCC2)Cc2[nH]c(-c3ccnc(NC(=O)C(CC(F)F)c4ccc(F)cc4)c3)c(Nc3ccccc3)c21` (single isomer, unassigned; (-)) [Example 56, (−)-N-[4-(3′-anilino-4′-oxo-1′,4′,5′,7′-tetrahydrospiro[cyclobutane-1,6′-pyrrolo[3,2-c]pyridin]-2′-yl)pyridin-2-yl]-4,4-difluoro-2-(4-fluorophenyl)butanamide], the pIC50 at human CSNK1A1 [1] is 5.97; in experiment [2] (setting [4]), 6.07; on human CSNK1D, 7.55; at human CSNK1A1 [3], 7.72.
